{"source": "paper PMC10609152", "about": "“Synthesis, Computational, and Anticancer In Vitro Investigations of Aminobenzylnaphthols Derived from 2-Naphtol, Benzaldehydes, and α-Aminoacids via the Betti Reaction” (Molecules, 2023)", "key": {"BxPC-3 cells [1]": {"test_system": "BxPC-3 cells", "experiment": "MTT assay, BxPC-3", "assay_type": "cell-based", "settings": "Homo sapiens", "from_the_text": "(§1) The MTT assay, also known as the 3-(4,5-dimethylthiazol-2-yl)-2,5-diphenyltetrazolium bromide assay, is a colorimetric assay used in biological and biomedical research to determine cell viability and proliferation. The MTT assay works on the assumption that live cells with active metabolism convert MTT into formazan crystals. These crystals are insoluble; however, they can be dissolved in an organic solvent such as DMSO to produce a colorful solution. The color intensity is proportional to the number of viable cells present in the culture.\n(§2) BxPC-3, HT-29, and WI-38 cells were seeded on 96-well plates at a density of approximately 8–10 × 10^3 cells per 100 µL medium/well. Cells were allowed to grow for 24 h in controlled conditions (37 °C; 5% CO2). […] The experimental design included nontreated controls and blanks (wells without cells). Following 24 or 72 h of culture with the investigated compounds, 20 μL of MTT tetrazolium salt (5 mg/mL in PBS) was added to each well, and the plates were incubated for 3 h in a humidified environment (37 °C; 5% CO2). The solutions were withdrawn after incubation, and 100 μL of DMSO was added to dissolve the formazan complexes. Afterward, a spectrophotometer (microplate reader Power Wave XS BioTek Instruments, Inc., Winooski, VT, USA) reading at 570 nm was conducted. The experiments were carried out in duplicates.\n(§3) GraphPad Prism 7 software was used to calculate the concentration of an MMZ compound reflecting a 50% growth inhibition (IC50). IC50 is defined as a concentration of tested compound that leads to a reduction in cell pool viability by 50% compared to the negative control (accepted as 100%). % cell viability=Absorbance value of treated cells−Absorbance value of blank/(Absorbance value of untreated cells−Absorbance value of blank)×100%"}, "HT-29 cells [2]": {"test_system": "HT-29 cells", "experiment": "MTT assay, HT-29", "assay_type": "cell-based", "settings": "Homo sapiens", "from_the_text": "as §1, §2, §3"}, "BxPC-3 cells [3]": {"test_system": "BxPC-3 cells", "experiment": "AO/EB double staining, BxPC-3", "assay_type": "cell-based", "settings": "BxPC-3, IC50 concentration, 72 h", "method": "(§4) BxPC-3 and HT-29 cells were plated at a density of 5 × 10^4 cells per well in 12-well plates. After 24 h, the cells were treated with MMZ-45AA and MMZ-140C at concentrations corresponding to their IC50 values obtained from the MTT assay. The cells were exposed to the compounds for 72 h. Following the incubation period, the cells were treated with a mixture of fluorochromes (100 µM AO/EB in a 1:1 ratio, v/v) for 5 min at 37 °C in the absence of light.\n(§5) The staining technique allowed for the differentiation of viable, apoptotic, and necrotic cells based on their varying uptake of fluorescent DNA-binding dyes and the degree of chromatin condensation in the stained nuclei. A fluorescence microscope (Olympus BX60 F5, Olympus Optical Co., Ltd., Nagano, Japan) with an excitation wavelength of 360 nm was used to analyze the cells. The results were obtained from three independent experiments."}, "HT-29 cells [4]": {"test_system": "HT-29 cells", "experiment": "AO/EB double staining, HT-29", "assay_type": "cell-based", "settings": "HT-29, IC50 concentration, 72 h", "method": "as §4, §5"}, "BxPC-3 cells [5]": {"test_system": "BxPC-3 cells", "experiment": "Annexin V-FITC/PI flow cytometry, BxPC-3", "assay_type": "cell-based", "settings": "Annexin V-FITC, BxPC-3, IC50 concentration, 72 h", "method": "(§6) The Annexin V-FITC Apoptosis Detection Kit was utilized to assess the induction of apoptosis following 72 h incubation with the tested MMZ compounds. BxPC-3 and HT-29 cells were plated at a density of 4 × 10^5 cells in 6-well plates. After 24 h, the cells were exposed to IC50 concentrations of MMZ-45AA and […], determined in the MTT assay. The experimental setup included a vehicle control with a final solvent concentration of less than 0.5% v/v DMSO, and cells treated with 2 µM SN-38 (the active metabolite of irinotecan) as a positive control. The cells were then incubated for an additional 72 h at 37 °C with 5% CO2.\n(§7) Following the exposure period, the cells were trypsinized, transferred to cytometric tubes, and allowed to incubate for 40 min. Subsequently, they were centrifuged at 1400 rpm for 10 min at 4 °C. The supernatant was then removed, and the cell pellet was diluted in 1 mL PBS. The remaining steps were carried out according to the instructions provided by the manufacturer of the Annexin V-FITC Apoptosis Detection Kit. The results reported in this study were obtained from three independent experiments"}, "HT-29 cells [6]": {"test_system": "HT-29 cells", "experiment": "Annexin V-FITC/PI flow cytometry, HT-29", "assay_type": "cell-based", "settings": "Annexin V-FITC, HT-29, IC50 concentration, 72 h", "method": "as §6, §7"}, "[7]": {"experiment": "MTT cell viability, WI-38 normal fibroblasts", "assay_type": "cell-based", "settings": "human, WI-38 normal fibroblast cells, read-out: % cell viability ± SD; for viability at 72 h: WI-38, 72 h", "method": "as §2, §3"}, "A549": {"test_system": "A549", "parameters": "method as in doi:10.31083/j.jmcm.2019.02.7181", "settings": "cited from earlier work"}, "HBL100": {"test_system": "HBL100", "parameters": "method as in doi:10.31083/j.jmcm.2019.02.7181", "settings": "cited from earlier work"}, "HeLa": {"test_system": "HeLa", "parameters": "method as in doi:10.31083/j.jmcm.2019.02.7181", "settings": "cited from earlier work"}, "SW1573": {"test_system": "SW1573", "parameters": "method as in doi:10.31083/j.jmcm.2019.02.7181", "settings": "cited from earlier work"}, "T47D": {"test_system": "T47D", "parameters": "method as in doi:10.31083/j.jmcm.2019.02.7181", "settings": "cited from earlier work"}, "[8]": {"settings": "BxPC-3, 24-h MTT, independent experiment 1, read-out: IC50(1)"}, "[9]": {"settings": "BxPC-3, 24-h MTT, independent experiment 2, read-out: IC50(2)"}, "[10]": {"settings": "BxPC-3, 24-h MTT, read-out: Mean IC50 ± SD"}, "[11]": {"settings": "BxPC-3, 72-h MTT, independent experiment 1, read-out: IC50(1)"}, "[12]": {"settings": "BxPC-3, 72-h MTT, independent experiment 2, read-out: IC50(2)"}, "[13]": {"settings": "BxPC-3, 72-h MTT, read-out: Mean IC50 ± SD"}, "[14]": {"settings": "HT-29, 24-h MTT, independent experiment 1, read-out: IC50(1)"}, "[15]": {"settings": "HT-29, 24-h MTT, independent experiment 2, read-out: IC50(2)"}, "[16]": {"settings": "HT-29, 24-h MTT, read-out: Mean IC50 ± SD"}, "[17]": {"settings": "HT-29, 72-h MTT, independent experiment 1, read-out: IC50(1)"}, "[18]": {"settings": "HT-29, 72-h MTT, independent experiment 2, read-out: IC50(2)"}, "[19]": {"settings": "HT-29, 72-h MTT, read-out: Mean IC50 ± SD"}}, "note": "Where two headings read alike, the source gives them in different places.", "data": [{"smiles": "COC(=O)[C@H](Cc1ccccc1)N[C@@H](c1ccccc1)c1c(O)ccc2ccccc12", "note": "(mixture of isomers) [MMZ-45AA, (S,S) and (R,R)-methyl ((2-hydroxynaphthalen-1-yl)(phenyl)methyl)-L-phenylalaninate]", "values": [{"measurement": "IC50", "setting": "BxPC-3 cells [1]; [8]", "result": 58.1, "unit": "µM"}, {"measurement": "IC50", "setting": "BxPC-3 cells [1]; [9]", "result": 38, "unit": "µM"}, {"measurement": "IC50", "setting": "BxPC-3 cells [1]; [10]", "result": "48 ± 14.2", "unit": "µM"}, {"measurement": "IC50", "setting": "BxPC-3 cells [1]; [11]", "result": 12.1, "unit": "µM"}, {"measurement": "IC50", "setting": "BxPC-3 cells [1]; [12]", "result": 14.4, "unit": "µM"}, {"measurement": "IC50", "setting": "BxPC-3 cells [1]; [13]", "result": 13.3, "unit": "µM"}, {"measurement": "IC50", "setting": "HT-29 cells [2]; [14]", "result": 40.3, "unit": "µM"}, {"measurement": "IC50", "setting": "HT-29 cells [2]; [15]", "result": 48.1, "unit": "µM"}, {"measurement": "IC50", "setting": "HT-29 cells [2]; [16]", "result": "44.2 ± 5.49", "unit": "µM"}, {"measurement": "IC50", "setting": "HT-29 cells [2]; [17]", "result": 12.2, "unit": "µM"}, {"measurement": "IC50", "setting": "HT-29 cells [2]; [18]", "result": 11.9, "unit": "µM"}, {"measurement": "IC50", "setting": "HT-29 cells [2]; [19]", "result": "12.1 ± 0.247", "unit": "µM"}, {"measurement": "% of apoptotic cells", "setting": "BxPC-3 cells [3]", "result": "21.9 ± 3.4", "unit": "%"}, {"measurement": "% of apoptotic cells", "setting": "HT-29 cells [4]", "result": "15.93 ± 3", "unit": "%"}, {"measurement": "% of apoptotic cells", "setting": "BxPC-3 cells [5]", "result": "38.7 ± 5.43", "unit": "%"}, {"measurement": "% of apoptotic cells", "setting": "HT-29 cells [6]", "result": "24.23 ± 1.1", "unit": "%"}]}, {"smiles": "COC(=O)[C@@H]1CCCN1[C@@H](c1ccccc1)c1c(O)ccc2ccccc12", "note": "(mixture of isomers) [MMZ-140C, (S,S) and (R,R)-methyl ((2-hydroxynaphthalen-1-yl)(phenyl)methyl)-L-prolinate]", "values": [{"measurement": "IC50", "setting": "BxPC-3 cells [1]; [8]", "result": 23.5, "unit": "µM"}, {"measurement": "IC50", "setting": "BxPC-3 cells [1]; [9]", "result": 36.8, "unit": "µM"}, {"measurement": "IC50", "setting": "BxPC-3 cells [1]; [10]", "result": "30.2 ± 9.39", "unit": "µM"}, {"measurement": "IC50", "setting": "BxPC-3 cells [1]; [11]", "result": 31.7, "unit": "µM"}, {"measurement": "IC50", "setting": "BxPC-3 cells [1]; [12]", "result": 33.2, "unit": "µM"}, {"measurement": "IC50", "setting": "BxPC-3 cells [1]; [13]", "result": "32.4 ± 1.09", "unit": "µM"}, {"measurement": "IC50", "setting": "HT-29 cells [2]; [14]", "result": 35.5, "unit": "µM"}, {"measurement": "IC50", "setting": "HT-29 cells [2]; [15]", "result": 40, "unit": "µM"}, {"measurement": "IC50", "setting": "HT-29 cells [2]; [16]", "result": "37.8 ± 3.2", "unit": "µM"}, {"measurement": "IC50", "setting": "HT-29 cells [2]; [17]", "result": 9.01, "unit": "µM"}, {"measurement": "IC50", "setting": "HT-29 cells [2]; [18]", "result": 14.1, "unit": "µM"}, {"measurement": "IC50", "setting": "HT-29 cells [2]; [19]", "result": 11.6, "unit": "µM"}, {"measurement": "viability at 24 h", "setting": "[7]; WI-38, 24 h, compound at IC50 concentration obtained for HT-29 cells", "result": "82.9 ± 2.06", "unit": "%"}, {"measurement": "viability at 72 h", "setting": "[7]; compound at IC50 concentration estimated for BxPC-3 cells", "result": "82.3 ± 6.96", "unit": "%"}, {"measurement": "viability at 72 h", "setting": "[7]; compound at IC50 concentration obtained for HT-29 cells", "result": "84.2 ± 2.56", "unit": "%"}, {"measurement": "% of apoptotic cells", "setting": "BxPC-3 cells [3]", "result": "No statistically significant changes"}, {"measurement": "% of apoptotic cells", "setting": "HT-29 cells [4]", "result": "11.73 ± 0.38", "unit": "%"}, {"measurement": "% of apoptotic cells", "setting": "BxPC-3 cells [5]", "result": "33.1 ± 1.12", "unit": "%"}, {"measurement": "% of apoptotic cells", "setting": "HT-29 cells [6]", "result": "15.13 ± 1", "unit": "%"}]}, {"smiles": "N.N.[Cl][Pt][Cl]", "note": "[cisplatin]", "values": [{"measurement": "GI50", "setting": "A549", "result": 4.9, "unit": "µM"}]}, {"smiles": "Brc1ccc(C(c2cccc3ccccc23)N2CCCC2)cc1", "note": "(centres unmarked) [compound 14j]", "values": [{"measurement": "GI50", "setting": "A549", "result": 7.9, "unit": "µM"}]}, {"smiles": "N#Cc1ccc(C(NCc2ccccc2)c2cccc3ccccc23)cc1", "note": "(centres unmarked) [compound 14t]", "values": [{"measurement": "GI50", "setting": "HBL100", "result": 5, "unit": "µM"}, {"measurement": "GI50", "setting": "HeLa", "result": 4.1, "unit": "µM"}, {"measurement": "GI50", "setting": "SW1573", "result": 6.3, "unit": "µM"}, {"measurement": "GI50", "setting": "T47D", "result": 8.4, "unit": "µM"}]}]}
